Source: PubChem BioAssay (NCI)
Values joined by “and” are separate entries in the source; they are usually repeats but may differ in a detail not shown here. Equal entries are not always repeated.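 Dose response: 5 concentrations. Exposure: 48 h. Format: 96-well plates. Endpoint: linear interpolation; highest concentration if not reached. GI50 marks 50% less growth. TGI marks complete inhibition of growth.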

Tests used:
Assay in all cases: NCI tumour cell line growth inhibition, 48 h
CAKI-1 renal = system: CAKI-1 renal
DU-145 prostate = system: DU-145 prostate
IGROV1 ovarian = system: IGROV1 ovarian
MDA-MB-435 = system: MDA-MB-435
NCI-H460 lung = system: NCI-H460 lung
RPMI-8226 leukemia = system: RPMI-8226 leukemia
SF-268 CNS = system: SF-268 CNS
SR leukemia = system: SR leukemia
T-47D breast = system: T-47D breast
TK-10 renal = system: TK-10 renal

| Compound | GI50 (CAKI-1 renal) [µM] | TGI (CAKI-1 renal) [µM] | GI50 (DU-145 prostate) [µM] | TGI (DU-145 prostate) | GI50 (IGROV1 ovarian) [µM] | TGI (IGROV1 ovarian) [µM] | GI50 (MDA-MB-435) [µM] | TGI (MDA-MB-435) [µM] | GI50 (NCI-H460 lung) [µM] | TGI (NCI-H460 lung) | GI50 (RPMI-8226 leukemia) [µM] | TGI (RPMI-8226 leukemia) [µM] | GI50 (SF-268 CNS) [µM] | TGI (SF-268 CNS) [µM] | GI50 (SR leukemia) [µM] | TGI (SR leukemia) | GI50 (T-47D breast) [µM] | TGI (T-47D breast) [µM] | GI50 (TK-10 renal) [µM] | TGI (TK-10 renal) |
| --- | --- | --- | --- | --- | --- | --- | --- | --- | --- | --- | --- | --- | --- | --- | --- | --- | --- | --- | --- | --- |
| O=C(NCCN1CCOCC1)Nc1ccc(-c2cc3c(Nc4ccc(Oc5cccc(C(F)(F)F)c5)c(Cl)c4)ncnc3s2)cc1 | 1.5 | 5.74 | 2.93 | 9.26 µM | 1.64 | 6.85 | 0.987 | 2 | 1.12 | 2.54 µM | 1.4 | 3.54 | 1.76 | 7.51 | 1.47 | 27.6 µM | 1.07 | 3.21 | 2.78 | 9.08 µM |
| COc1cccc2c1cc([N+](=O)[O-])c1c(C(=O)O)cc3c(c12)OCO3 | 17.8 | > 100 | 23 | > 82.1 µM and 98.7 µM | 34.3 | > 100 | 41.5 | > 100 | 18.2 | 63.7 µM and > 100 µM | 37.1 | > 100 | 29 | > 95.2 | 24.9 | 75.7 µM and 78.9 µM | 66.3 | > 100 | 8.86 | 48.1 µM and > 100 µM |
| CCCCCCNC(=O)Oc1ccc(/C(=C(\C)c2ccccc2)c2ccc(OCCN3CCCCC3)cc2)cc1 | 2.2 | 5.11 | 3.69 | 15.3 µM | 3.01 | 8.85 | 1.84 | 4.01 | 2.05 | 4.35 µM | 2.38 | 5.57 | 4.26 | 20.2 | 1.73 | 4.39 µM | 1.14 | 4.87 | 7.85 | 21.4 µM |
| C=C1C(=O)O[C@H]2[C@H]1[C@H](OC(=O)/C(C)=C\C)C[C@]1(CO1)[C@@H]1[C@H](OC(C)=O)C=C(C)[C@]21O | – | 36.8 | – | 29 µM | – | 38.8 | – | 42.4 | – | > 89.8 µM | – | 15.2 | – | 45.5 | – | 28.5 µM | – | 36.5 | – | 23.1 µM |
| O=C(O)c1ccc(-c2ccc(C(=O)O)cc2I)c(I)c1 | > 100 | > 100 | > 100 | > 100 µM | > 100 | > 100 | > 100 | > 100 | > 100 | > 100 µM | > 100 | > 100 | > 100 | > 100 | > 100 | > 100 µM | > 100 | > 100 | > 100 | > 100 µM |
| CS(=O)(=O)OCCN(CCOS(C)(=O)=O)c1ccc(C=Nc2ccc3oc(=O)ccc3c2)cc1 | – | 9.11 | – | 35.9 µM | – | 53.1 | – | 26.1 | – | 5.38 µM | – | 49.1 | – | 74.3 | – | 40.1 µM | – | 72.8 | – | 9.22 µM |
| O=C(c1ccco1)c1c(C(F)(F)F)nc2cc(C(F)(F)F)ccc2[n+]1[O-] | 19.7 | 58.8 | 45.1 | > 100 µM | 26.5 | 90.6 | > 100 | > 100 | 56 | > 100 µM | 34.4 | > 100 | 24.6 | 81.3 | 33.7 | > 100 µM | 18.9 | 49.6 | 28.6 | > 100 µM |
| CCOC(=O)N1C/C(=C/c2ccc(OC)cc2)C(=O)/C(=C/c2ccc(OC)cc2)C1 | 4.67 | > 70.1 | 4.18 | > 100 µM | 2.44 | > 21.2 | 1.19 | 4.71 | 3.13 | > 100 µM | 0.211 | 1.6 | 3.58 | > 45.1 | 0.579 | > 32.7 µM | 3.79 | > 100 | 2.91 | 8.58 µM |
| Cc1c2ncccc2nc2[nH]c3ccc(OCCN(C)C)cc3c12 | 3.61 | 21.3 | 1.9 | 11.6 µM | 2.13 | 16.5 | 3.12 | 15.7 | 1.93 | 11 µM | 2.13 | 5.91 | 2.16 | 15.4 | 0.734 | 7.95 µM | 2.8 | > 100 | 2.42 | 9.55 µM |
| CCn1c(-c2nonc2N)nc2c(C#CC(C)(C)O)nc(O[C@@H](CN)c3ccccc3)cc21 | 3.7 | 12.3 | 0.112 | 4.64 µM | 0.0163 | 2.86 | 0.365 | 2.99 | 0.0621 | 1.06 µM | 0.645 | 2.7 | 0.574 | 1.98 | 0.099 | 3.59 µM | 0.016 | 2.34 | 0.164 | 1.66 µM |
| O=C(O)C(Br)C(Br)c1ccccc1[N+](=O)[O-] (stereo not given) | – | > 100 | – | > 100 µM | – | > 100 | – | > 100 | – | > 100 µM | – | > 100 | – | > 100 | – | > 100 µM | – | > 100 | – | > 100 µM |
| COc1ccc(NC(=O)c2sc3nc(C)c(C(O)c4ccc(OC)cc4)cc3c2N)cc1 (stereo not given) | 0.803 | > 50 | 1.65 | > 50 µM | 1.85 | > 50 | 0.121 | 0.387 | 0.17 | 9.97 µM | 1.62 | > 50 | 2.28 | > 50 | 0.256 | > 50 µM | 10.5 | > 50 | 17.1 | > 50 µM |
| O=[N+]([O-])c1cc(Cl)cc2c1nc(NCCO)c1ccccc12 | – | > 100 | – | 15.9 µM | – | > 100 | – | > 100 | – | 15.7 µM | – | > 100 | – | > 100 | – | 7.09 µM | – | > 100 | – | > 60.5 µM |
| CN1CCN(Cc2ccc(NC(=O)c3[nH]ncc3Nc3ncnc4sccc34)cc2)CC1 | 0.563 | > 100 | 0.35 | > 100 µM | 0.396 | > 100 | 0.394 | > 100 | 0.284 | > 100 µM | 0.36 | 1.38 | 0.446 | 3.73 | 0.219 | 0.73 µM | 0.699 | > 100 | 2.16 | 19.6 µM |
| Oc1ccc(/C=N/Nc2nc3ccccc3s2)c(O)c1 | 1.07 | 15.7 | 1.86 | 17.6 µM | 0.904 | 10.8 | 3.08 | > 100 | 1.78 | 5.21 µM | 2.55 | > 100 | 1.11 | > 100 | 1.53 | 11.4 µM | 3.37 | > 100 | 2.1 | 45.2 µM |
